Publication PMC4864979 (Bioorganic & medicinal chemistry, 2015)

Test system: 50 kinases
Experiment: Profiling against 50 kinases, radioactive filter-binding assay
Assay type: biochemical
Conditions: duplicate (Supplementary Figure 1)

selectivity throughout the kinome: good selectivity throughout the kinome
Structure (SMILES): NCCCNc1nc(Nc2cccc(NC(=O)N3CCCC3)c2)ncc1I [Compound 3, N-(3-((4-((3-aminopropyl)amino)-5-iodopyrimidin-2-yl)amino)phenyl)pyrrolidine-1-carboxamide]
